Source: ChEMBL document CHEMBL1134440, “Discovery of 4-amino-5-(3-bromophenyl)-7-(6-morpholino-pyridin-3-yl)pyrido[2,3-d]pyrimidine, an orally active, non-nucleoside adenosine kinase inhibitor” (J Med Chem, 2001)

What was measured:
Adenosine kinase [1] = target: Adenosine kinase (Rattus norvegicus, UniProt Q64640); experiment: In vitro inhibition of Adenosine kinase (AK)
Adenosine kinase [2] = target: Adenosine kinase (Homo sapiens, UniProt P55263); experiment: Inhibition of adenosine phosphorylation in confluent IMR-32 (human neuroblastoma) cells.; assay type: functional, cell-based
Chain of Adenosine kinase (Homo sapiens, UniProt P55263) (P55263 whole entry): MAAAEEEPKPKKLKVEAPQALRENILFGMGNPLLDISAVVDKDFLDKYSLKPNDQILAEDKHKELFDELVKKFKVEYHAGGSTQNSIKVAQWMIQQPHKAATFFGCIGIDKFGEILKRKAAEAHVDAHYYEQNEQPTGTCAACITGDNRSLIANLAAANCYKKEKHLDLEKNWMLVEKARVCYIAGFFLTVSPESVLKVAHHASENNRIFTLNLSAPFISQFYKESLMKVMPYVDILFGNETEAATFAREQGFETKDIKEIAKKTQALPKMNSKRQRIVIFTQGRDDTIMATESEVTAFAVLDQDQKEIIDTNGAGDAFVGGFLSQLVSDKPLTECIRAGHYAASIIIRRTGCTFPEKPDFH

Chain of Adenosine kinase (Rattus norvegicus, UniProt Q64640) (Q64640 whole entry): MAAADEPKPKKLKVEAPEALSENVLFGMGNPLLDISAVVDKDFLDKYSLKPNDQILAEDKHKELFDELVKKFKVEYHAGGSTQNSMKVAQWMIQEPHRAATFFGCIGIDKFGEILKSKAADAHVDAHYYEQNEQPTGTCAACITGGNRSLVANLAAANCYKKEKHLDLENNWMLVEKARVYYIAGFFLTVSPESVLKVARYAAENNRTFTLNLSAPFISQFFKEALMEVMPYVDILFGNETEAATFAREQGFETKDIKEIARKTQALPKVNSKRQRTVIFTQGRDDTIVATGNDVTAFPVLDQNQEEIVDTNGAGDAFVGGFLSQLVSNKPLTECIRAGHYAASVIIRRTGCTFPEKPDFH

Row | Compound | IC50 (Adenosine kinase [1]) [nM] | IC50 (Adenosine kinase [2]) [nM]
1 | Nc1ncnc2nc(-c3ccc(N4CCOCC4)nc3)cc(-c3cccc(Br)c3)c12 | 1.7 | 50
2 | C[C@H]1O[C@@H](n2cc(-c3ccccc3)c3c(Nc4ccc(F)cc4)ncnc32)[C@H](O)[C@@H]1O | 2.8 | 134
3 | CN(C)c1ccc(-c2cc(-c3cccc(Br)c3)c3c(N)ncnc3n2)cn1 | 1.8 | 32
4 | CN(C)c1ccc(-c2cnc3c(N)ncnc3n2)cc1 | 440 | 3600
5 | Cc1ccc(-c2cc3c(N)ncnc3nc2-c2ccc(N(C)C)cc2)cc1 | 73.3 | 500
6 | NC[C@H]1O[C@@H](n2cnc3c(N)ncnc32)[C@H](O)[C@@H]1O | 15 | 6330
7 | Nc1ncnc2nc(-c3ccc(N4CCOCC4)cc3)cnc12 | 400 | 1000
8 | CN(C)c1ccc(-c2cc(C3CCCCC3)c3c(N)ncnc3n2)cc1 | 8.3 | 467
9 | COC(=O)c1cccc(-c2cc3c(N)ncnc3nc2-c2ccc(N(C)C)cc2)c1 | 66.7 | 700
10 | COc1ccc(-c2cc3c(N)ncnc3nc2-c2ccc(N(C)C)cc2)cc1 | 91.7 | 567
11 | Nc1ncnc(N[C@@H]2O[C@H](CO)[C@@H](O)[C@H]2O)c1[N+](=O)[O-] | 2000 | 26000
12 | Nc1ccc(-c2cnc3c(N)ncnc3n2)cc1 | 1750 | > 10000
13 | CN(C)c1ccc(-c2cc(-c3ccccc3)c3c(N)ncnc3n2)cc1 | – | 467
14 | CN(C)c1ccc(-c2ccc3c(N)ncnc3n2)cc1 | 773 | > 10000
15 | Nc1ncnc2nc(-c3ccc([N+](=O)[O-])cc3)cnc12 | 4750 | > 10000
16 | CN(C)c1ccc(-c2nc3ncnc(N)c3cc2-c2ccc(C(C)(C)C)cc2)cc1 | 62.5 | > 1000
17 | Nc1ncnc2nc(-c3ccccc3)cnc12 | 5500 | > 10000
18 | CN(C)c1ccc(-c2nc3ncnc(N)c3nc2-c2ccccc2)cc1 | 25 | 333
19 | CN(C)c1ccc(-c2cc(-c3cccc(Br)c3)c3c(N)ncnc3n2)cc1 | – | 167
20 | COc1ccc(-c2cnc3c(N)ncnc3n2)cc1 | 2000 | > 10000
